Like-named read-outs stand apart in the source and are kept apart here. One block for each compound: values may come before it.
Assays:
AOS = tested on: AOS; parameters: method as in PMID 12223729; settings: cited from earlier work
AOC = tested on: AOC; parameters: method as in PMID 12223729; settings: cited from earlier work
LOX4 [1] = target: T1, LOX4 (Arabidopsis thaliana, UniProt Q9FNX8); assay: LOX4 activity, oxygen electrode (polarography); type: biochemical; parameters: made in house; host or cells: E. coli Nico21(DE3), pET15b; settings: for Relative Activity (%) LOX4: 1 mM metal salt, LeA 30 µM in 20 mM HEPES pH 8.0, oxygen consumption vs control without metal
T1 sequence (Q9FNX8 71-926): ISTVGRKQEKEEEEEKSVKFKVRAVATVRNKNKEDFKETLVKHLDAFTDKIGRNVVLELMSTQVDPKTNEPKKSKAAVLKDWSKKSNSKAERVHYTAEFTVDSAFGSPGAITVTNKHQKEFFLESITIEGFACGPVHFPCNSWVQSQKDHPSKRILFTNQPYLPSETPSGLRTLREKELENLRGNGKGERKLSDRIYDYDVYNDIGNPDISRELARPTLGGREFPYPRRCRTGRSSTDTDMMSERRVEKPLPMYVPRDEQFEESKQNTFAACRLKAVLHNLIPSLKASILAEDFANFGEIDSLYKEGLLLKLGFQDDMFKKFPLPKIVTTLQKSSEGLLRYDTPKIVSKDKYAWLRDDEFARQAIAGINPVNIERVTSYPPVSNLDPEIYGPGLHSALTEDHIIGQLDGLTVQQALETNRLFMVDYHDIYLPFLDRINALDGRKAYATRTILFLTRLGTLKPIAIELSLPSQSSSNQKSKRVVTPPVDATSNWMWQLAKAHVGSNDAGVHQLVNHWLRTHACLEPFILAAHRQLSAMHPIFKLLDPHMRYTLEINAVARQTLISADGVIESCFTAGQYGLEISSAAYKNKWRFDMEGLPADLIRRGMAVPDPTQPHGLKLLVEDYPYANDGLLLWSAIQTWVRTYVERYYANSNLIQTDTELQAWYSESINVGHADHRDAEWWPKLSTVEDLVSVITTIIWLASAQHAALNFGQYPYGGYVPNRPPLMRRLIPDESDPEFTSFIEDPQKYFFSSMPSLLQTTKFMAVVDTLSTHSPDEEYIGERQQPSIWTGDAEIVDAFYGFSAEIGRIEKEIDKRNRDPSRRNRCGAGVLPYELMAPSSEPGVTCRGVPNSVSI

LOX3 [2] = target: T2, LOX3 (Arabidopsis thaliana, UniProt Q9LNR3); assay: LOX3 activity, oxygen electrode (polarography); type: biochemical; parameters: made in house; host or cells: E. coli Nico21(DE3), pET15b; settings: enzyme incubated with 280 µM chemical (1/10 vol of 2.8 mM), injected into 30 µM LeA, 50 mM Tris-HCl pH 7.2; vs solvent control; read-out: Polarography Relative Activity (%) LOX3
T2 sequence (Q9LNR3 71-919): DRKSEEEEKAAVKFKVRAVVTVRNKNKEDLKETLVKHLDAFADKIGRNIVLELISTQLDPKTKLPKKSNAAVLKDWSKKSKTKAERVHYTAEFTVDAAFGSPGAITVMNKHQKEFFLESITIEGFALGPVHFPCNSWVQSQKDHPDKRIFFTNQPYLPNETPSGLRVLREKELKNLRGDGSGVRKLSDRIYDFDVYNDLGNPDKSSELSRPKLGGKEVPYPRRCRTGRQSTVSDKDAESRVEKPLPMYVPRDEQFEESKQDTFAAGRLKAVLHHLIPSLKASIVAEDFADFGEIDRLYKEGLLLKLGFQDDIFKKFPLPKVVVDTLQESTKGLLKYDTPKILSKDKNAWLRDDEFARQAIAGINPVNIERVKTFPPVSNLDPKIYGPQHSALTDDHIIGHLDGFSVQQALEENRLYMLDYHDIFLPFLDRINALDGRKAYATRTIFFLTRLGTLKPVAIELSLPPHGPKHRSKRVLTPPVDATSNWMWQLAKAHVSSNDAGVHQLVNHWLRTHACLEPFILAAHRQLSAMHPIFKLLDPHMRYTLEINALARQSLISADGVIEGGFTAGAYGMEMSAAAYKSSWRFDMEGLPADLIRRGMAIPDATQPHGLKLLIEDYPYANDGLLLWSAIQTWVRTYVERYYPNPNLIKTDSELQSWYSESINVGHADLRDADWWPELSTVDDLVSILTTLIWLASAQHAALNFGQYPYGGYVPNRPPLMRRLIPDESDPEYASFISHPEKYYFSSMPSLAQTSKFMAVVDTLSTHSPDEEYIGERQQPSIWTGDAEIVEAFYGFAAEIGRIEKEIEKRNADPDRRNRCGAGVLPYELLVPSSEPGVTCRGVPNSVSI

LOX4 [3] = target: T1, LOX4; assay: LOX4 activity, oxygen electrode (polarography); type: biochemical; parameters: made in house; host or cells: E. coli Nico21(DE3), pET15b; settings: enzyme incubated with 280 µM chemical (1/10 vol of 2.8 mM), injected into 30 µM LeA, 50 mM Tris-HCl pH 7.2; vs solvent control; read-out: Polarography Relative Activity (%) LOX4
LOX3 [4] = target: T2, LOX3; assay: LOX3 activity, spectrophotometric (conjugated diene formation at 234 nm); settings: for Mode of inhibition: Michaelis–Menten, Lineweaver–Burk and Dixon plots; for Photometry Relative activity (%) LOX3: enzyme 0.225 µg/µL incubated 10 min 30 °C with 280 µM chemical, 4.8 µM LeA, 50 mM Tris-HCl pH 7.2, vs solvent control; for Relative Activity (%) LOX3: E. coli lysate in 50 mM TRIS pH 8.0 diluted 1:10, 50 mM HEPES pH 8.0 + 1 mM metal salt, LeA, 234 nm
LOX4 [5] = target: T1, LOX4; assay: LOX4 activity, spectrophotometric (conjugated diene formation at 234 nm); settings: for Photometry Relative activity (%) LOX4: enzyme 0.225 µg/µL incubated 10 min 30 °C with 280 µM chemical, 4.8 µM LeA, 50 mM Tris-HCl pH 7.2, vs solvent control; for Relative Activity (%) LOX4: E. coli lysate in 50 mM TRIS pH 8.0 diluted 1:10, 50 mM HEPES pH 8.0 + 1 mM metal salt, LeA, 234 nm
LOX3 [6] = target: T2, LOX3; assay: LOX3 activity, oxygen electrode (polarography); type: biochemical; parameters: made in house; host or cells: E. coli Nico21(DE3), pET15b; settings: for Relative Activity (%) LOX3: 1 mM metal salt, LeA 30 µM in 20 mM HEPES pH 8.0, oxygen consumption vs control without metal
[7] = 12.2 µg LOX4 + 1.3 mM GSH prior to 140 µM 12-OPDA
[8] = doubled LOX4 concentration + 1.3 mM GSH + 140 µM 12-OPDA

SMILES: CCC=CCC1C(=O)C=CC1CCCCCCCC(=O)O (stereo not drawn) [12-OPDA, cis-(+)-12-oxophytodienoic acid]
Sensitivity of AOS (AOS; 0.5 mM): insensitivity
Sensitivity of AOC (AOC; 0.5 mM): insensitivity
Residual LOX4 activity (LOX4 [1]; 12.2 µg LOX4 + 140 µM 12-OPDA alone): 29.6%
Oxygen consumption (residual LOX4 activity) (LOX4 [1]; 12.2 µg LOX4 + 140 µM 12-OPDA alone, control 9.8 ± 0.1): 2.9 ± 0.1 nmol/mL/min
Oxygen consumption (residual LOX4 activity) (LOX4 [1]; [7]): 3.6 ± 0.1 nmol/mL/min
Residual LOX4 activity (LOX4 [1]; [7]): 36.7%
Residual LOX4 activity (LOX4 [1]; doubled LOX4 concentration + 140 µM 12-OPDA): 34%
Oxygen consumption (residual LOX4 activity) (LOX4 [1]; doubled LOX4 concentration + 140 µM 12-OPDA, control 19.7 ± 0.1): 6.7 ± 0.1 nmol/mL/min
Oxygen consumption (residual LOX4 activity) (LOX4 [1]; [8]): 9.0 ± 0.1 nmol/mL/min
Residual LOX4 activity (LOX4 [1]; [8]): 45.7%
Oxygen consumption (residual LOX4 activity) (LOX4 [1]; doubled LOX4 concentration + 2.6 mM GSH + 140 µM 12-OPDA): 8.5 ± 0.6 nmol/mL/min
activity at 280 µM (LOX3 [2]): 60 ± 5%
activity at 280 µM (LOX4 [3]): 21 ± 5%
IC50 (LOX3 [4]): 130 ± 31 µM
Ki (LOX3 [4]): 13 µM
Mode of inhibition (LOX3 [4]): non-competitive or mixed
Photometry Relative activity (%) LOX3 (LOX3 [4]): 35 ± 5%
IC50 (LOX4 [5]): 48 µM
Ki (LOX4 [5]): 10 µM
Mode of inhibition (LOX4 [5]; Lineweaver–Burk and Dixon plots): non-competitive or mixed
Photometry Relative activity (%) LOX4 (LOX4 [5]): 6 ± 4%

SMILES: [Ca+2].[Cl-].[Cl-] [CaCl2]
Sensitivity of AOS (AOS; 1.0 mM): insensitivity
Sensitivity of AOC (AOC; 1.0 mM): insensitivity
Relative Activity (%) LOX3 (LOX3 [6]): 117 ± 10%
Relative Activity (%) LOX4 (LOX4 [1]): 100 ± 4%
Relative Activity (%) LOX3 (LOX3 [4]): 104±2%
Relative Activity (%) LOX4 (LOX4 [5]): 85±6%

SMILES: O=S(=O)([O-])[O-].[Cd+2] [CdSO4]
Relative Activity (%) LOX3 (LOX3 [6]): no activity
Relative Activity (%) LOX4 (LOX4 [1]): no activity
Relative Activity (%) LOX3 (LOX3 [4]): 63±3%
Relative Activity (%) LOX4 (LOX4 [5]): 40±6%

SMILES: CC/C=C\CC1C(=O)CCC1CC(=O)OC (stereo not shown) [MJ, methyl jasmonate]
activity at 280 µM (LOX3 [2]): 85 ± 5%
activity at 280 µM (LOX4 [3]): 95 ± 3%
Ki (LOX3 [4]): 295 µM
Mode of inhibition (LOX3 [4]): non-competitive

Continued, in another order:

Increase of LOX3 activity in comparison to control (LOX3 [6]; 1 mM cation, LeA 30 µM, pH 8.0): 35%
Relative Activity (%) LOX3 (LOX3 [6]): 135 ± 4%
Increase of LOX4 activity in comparison to control (LOX4 [1]; 1 mM cation, LeA 30 µM, pH 8.0): 6%
Relative Activity (%) LOX4 (LOX4 [1]): 106 ± 3%
Relative Activity (%) LOX3 (LOX3 [4]): 108±4%
Relative Activity (%) LOX4 (LOX4 [5]): 107±2%
SMILES: [Cl-].[Cl-].[Mg+2] [MgCl2]
Sensitivity of AOS (AOS; 1.0 mM): insensitivity
Sensitivity of AOC (AOC; 1.0 mM): insensitivity

activity at 280 µM (LOX3 [2]): 101 ± 5%
activity at 280 µM (LOX4 [3]): 101 ± 4%
SMILES: O=C(O)c1ccccc1O [SA, salicylic acid]

activity at 280 µM (LOX3 [2]): 100 ± 5%
activity at 280 µM (LOX4 [3]): 100 ± 9%
Photometry Relative activity (%) LOX3 (LOX3 [4]): 103 ± 4%
Photometry Relative activity (%) LOX4 (LOX4 [5]): 106 ± 4%
SMILES: O=C(O)/C=C/CCCCCCCCC(=O)O [TA, traumatic acid]

Reference: publication PMC8508710, “Biochemical Characterization of 13-Lipoxygenases of Arabidopsis thaliana” (International Journal of Molecular Sciences, 2021)
